Results on nine compounds are retold here after ChEMBL document CHEMBL5291721, “A preclinical secondary pharmacology resource illuminates target-adverse drug reaction associations of marketed drugs” (Nat Commun, 2023).

For one test, the target named is D(1A) dopamine receptor (Homo sapiens, UniProt P21728). The class given is functional, cell-based.
Test [1] deals with Glutamate receptor ionotropic, NMDA 1 (Rattus norvegicus, UniProt P35439).
The target in test [2] is Voltage-dependent L-type calcium channel subunit alpha-1C (Rattus norvegicus, UniProt P22002). The class given is functional.
Test [3] deals with Sodium-dependent noradrenaline transporter (Homo sapiens, UniProt P23975).
The target in test [4] is T1, Cannabinoid receptor 1 (Homo sapiens, UniProt P21554). The test is classed as functional, cell-based.
The next test deals with Adenosine receptor A2a (Homo sapiens, UniProt P29274).
In test [5] the target is T2, Type-1 angiotensin II receptor (Homo sapiens, UniProt P30556).
T2 sequence (P30556 whole entry): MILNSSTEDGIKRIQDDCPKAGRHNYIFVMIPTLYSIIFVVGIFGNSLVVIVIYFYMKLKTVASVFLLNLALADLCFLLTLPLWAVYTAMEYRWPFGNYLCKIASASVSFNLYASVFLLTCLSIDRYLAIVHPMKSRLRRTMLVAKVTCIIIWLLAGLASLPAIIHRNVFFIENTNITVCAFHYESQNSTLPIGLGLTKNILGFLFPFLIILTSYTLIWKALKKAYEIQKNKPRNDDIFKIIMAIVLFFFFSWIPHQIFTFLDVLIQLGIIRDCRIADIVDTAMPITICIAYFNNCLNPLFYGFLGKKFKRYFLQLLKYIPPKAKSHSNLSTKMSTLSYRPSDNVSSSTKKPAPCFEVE

Test [6] concerns the target Neuronal acetylcholine receptor subunit alpha-4 (Homo sapiens, UniProt P43681).
A further test concerns the target Histamine H2 receptor (Homo sapiens, UniProt P25021). The class given is functional, cell-based.
The target of test [7] is T3, Cholecystokinin receptor type A (Homo sapiens, UniProt P32238).
T3 sequence (P32238 whole entry): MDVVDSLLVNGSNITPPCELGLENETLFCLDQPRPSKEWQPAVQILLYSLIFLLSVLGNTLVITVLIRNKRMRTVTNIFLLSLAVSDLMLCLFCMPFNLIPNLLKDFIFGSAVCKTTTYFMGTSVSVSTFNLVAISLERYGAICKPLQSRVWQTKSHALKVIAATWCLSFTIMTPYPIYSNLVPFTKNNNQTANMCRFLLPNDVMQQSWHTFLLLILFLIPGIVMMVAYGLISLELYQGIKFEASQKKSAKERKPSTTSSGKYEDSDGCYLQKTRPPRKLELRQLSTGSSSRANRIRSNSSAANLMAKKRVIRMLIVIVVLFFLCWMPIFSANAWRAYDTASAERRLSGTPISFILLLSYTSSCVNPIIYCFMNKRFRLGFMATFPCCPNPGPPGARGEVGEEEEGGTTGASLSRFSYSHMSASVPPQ

Test [8] concerns the target T1, Cannabinoid receptor 1. The test is classed as functional, cell-based. The source holds these as a separate data set.
Test [9] addresses T4, Prostaglandin G/H synthase 1 (Rattus norvegicus, UniProt Q63921).
T4 sequence (Q63921 whole entry): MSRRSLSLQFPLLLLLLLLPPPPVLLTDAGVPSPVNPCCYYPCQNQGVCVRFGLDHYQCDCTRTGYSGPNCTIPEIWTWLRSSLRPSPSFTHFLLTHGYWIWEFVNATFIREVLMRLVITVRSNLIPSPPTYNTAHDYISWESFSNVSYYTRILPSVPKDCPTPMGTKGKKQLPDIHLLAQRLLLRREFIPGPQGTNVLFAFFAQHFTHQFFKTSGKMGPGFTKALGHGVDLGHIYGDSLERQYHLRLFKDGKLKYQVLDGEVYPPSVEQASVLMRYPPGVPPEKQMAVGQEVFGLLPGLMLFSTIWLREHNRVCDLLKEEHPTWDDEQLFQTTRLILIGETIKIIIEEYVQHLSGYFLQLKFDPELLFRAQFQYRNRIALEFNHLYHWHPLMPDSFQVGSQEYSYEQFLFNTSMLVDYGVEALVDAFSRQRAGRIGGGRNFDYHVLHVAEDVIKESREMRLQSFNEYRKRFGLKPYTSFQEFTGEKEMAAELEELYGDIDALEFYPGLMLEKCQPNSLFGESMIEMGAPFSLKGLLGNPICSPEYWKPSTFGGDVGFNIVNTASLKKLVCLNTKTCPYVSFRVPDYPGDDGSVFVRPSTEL
The class given is functional.

In another test the target is T5, Progesterone receptor (Homo sapiens, UniProt P06401).
T5 sequence (P06401 whole entry): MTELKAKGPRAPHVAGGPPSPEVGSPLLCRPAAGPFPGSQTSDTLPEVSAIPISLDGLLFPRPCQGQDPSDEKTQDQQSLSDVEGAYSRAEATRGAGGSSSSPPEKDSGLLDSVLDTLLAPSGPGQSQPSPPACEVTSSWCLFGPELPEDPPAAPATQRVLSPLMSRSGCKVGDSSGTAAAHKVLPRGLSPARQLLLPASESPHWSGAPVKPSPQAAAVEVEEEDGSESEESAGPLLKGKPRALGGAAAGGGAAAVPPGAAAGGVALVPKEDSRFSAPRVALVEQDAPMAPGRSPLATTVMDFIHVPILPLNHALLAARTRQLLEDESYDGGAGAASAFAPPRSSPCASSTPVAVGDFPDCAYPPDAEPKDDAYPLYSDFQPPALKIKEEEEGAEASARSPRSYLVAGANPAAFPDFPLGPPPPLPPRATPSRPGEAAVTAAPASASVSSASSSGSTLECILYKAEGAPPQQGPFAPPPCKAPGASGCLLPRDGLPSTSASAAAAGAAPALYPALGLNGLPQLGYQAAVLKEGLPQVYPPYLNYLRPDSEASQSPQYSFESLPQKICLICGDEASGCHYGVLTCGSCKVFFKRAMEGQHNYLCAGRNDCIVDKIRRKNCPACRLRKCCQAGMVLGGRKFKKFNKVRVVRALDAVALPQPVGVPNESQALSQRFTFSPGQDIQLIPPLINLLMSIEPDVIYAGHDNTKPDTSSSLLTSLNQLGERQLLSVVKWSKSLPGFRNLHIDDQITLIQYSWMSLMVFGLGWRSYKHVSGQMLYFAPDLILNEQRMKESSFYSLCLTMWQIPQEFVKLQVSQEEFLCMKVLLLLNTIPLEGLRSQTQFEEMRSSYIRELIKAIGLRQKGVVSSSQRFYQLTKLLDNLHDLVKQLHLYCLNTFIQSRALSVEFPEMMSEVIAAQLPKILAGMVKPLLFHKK
The class given is functional.

The target of test [10] is Gamma-aminobutyric acid receptor subunit alpha-1 (Rattus norvegicus, UniProt P62813). The class given is functional.
Also: assay procedure not described here.

Voltage-dependent L-type calcium channel subunit alpha-1C, sequence (P22002 whole entry): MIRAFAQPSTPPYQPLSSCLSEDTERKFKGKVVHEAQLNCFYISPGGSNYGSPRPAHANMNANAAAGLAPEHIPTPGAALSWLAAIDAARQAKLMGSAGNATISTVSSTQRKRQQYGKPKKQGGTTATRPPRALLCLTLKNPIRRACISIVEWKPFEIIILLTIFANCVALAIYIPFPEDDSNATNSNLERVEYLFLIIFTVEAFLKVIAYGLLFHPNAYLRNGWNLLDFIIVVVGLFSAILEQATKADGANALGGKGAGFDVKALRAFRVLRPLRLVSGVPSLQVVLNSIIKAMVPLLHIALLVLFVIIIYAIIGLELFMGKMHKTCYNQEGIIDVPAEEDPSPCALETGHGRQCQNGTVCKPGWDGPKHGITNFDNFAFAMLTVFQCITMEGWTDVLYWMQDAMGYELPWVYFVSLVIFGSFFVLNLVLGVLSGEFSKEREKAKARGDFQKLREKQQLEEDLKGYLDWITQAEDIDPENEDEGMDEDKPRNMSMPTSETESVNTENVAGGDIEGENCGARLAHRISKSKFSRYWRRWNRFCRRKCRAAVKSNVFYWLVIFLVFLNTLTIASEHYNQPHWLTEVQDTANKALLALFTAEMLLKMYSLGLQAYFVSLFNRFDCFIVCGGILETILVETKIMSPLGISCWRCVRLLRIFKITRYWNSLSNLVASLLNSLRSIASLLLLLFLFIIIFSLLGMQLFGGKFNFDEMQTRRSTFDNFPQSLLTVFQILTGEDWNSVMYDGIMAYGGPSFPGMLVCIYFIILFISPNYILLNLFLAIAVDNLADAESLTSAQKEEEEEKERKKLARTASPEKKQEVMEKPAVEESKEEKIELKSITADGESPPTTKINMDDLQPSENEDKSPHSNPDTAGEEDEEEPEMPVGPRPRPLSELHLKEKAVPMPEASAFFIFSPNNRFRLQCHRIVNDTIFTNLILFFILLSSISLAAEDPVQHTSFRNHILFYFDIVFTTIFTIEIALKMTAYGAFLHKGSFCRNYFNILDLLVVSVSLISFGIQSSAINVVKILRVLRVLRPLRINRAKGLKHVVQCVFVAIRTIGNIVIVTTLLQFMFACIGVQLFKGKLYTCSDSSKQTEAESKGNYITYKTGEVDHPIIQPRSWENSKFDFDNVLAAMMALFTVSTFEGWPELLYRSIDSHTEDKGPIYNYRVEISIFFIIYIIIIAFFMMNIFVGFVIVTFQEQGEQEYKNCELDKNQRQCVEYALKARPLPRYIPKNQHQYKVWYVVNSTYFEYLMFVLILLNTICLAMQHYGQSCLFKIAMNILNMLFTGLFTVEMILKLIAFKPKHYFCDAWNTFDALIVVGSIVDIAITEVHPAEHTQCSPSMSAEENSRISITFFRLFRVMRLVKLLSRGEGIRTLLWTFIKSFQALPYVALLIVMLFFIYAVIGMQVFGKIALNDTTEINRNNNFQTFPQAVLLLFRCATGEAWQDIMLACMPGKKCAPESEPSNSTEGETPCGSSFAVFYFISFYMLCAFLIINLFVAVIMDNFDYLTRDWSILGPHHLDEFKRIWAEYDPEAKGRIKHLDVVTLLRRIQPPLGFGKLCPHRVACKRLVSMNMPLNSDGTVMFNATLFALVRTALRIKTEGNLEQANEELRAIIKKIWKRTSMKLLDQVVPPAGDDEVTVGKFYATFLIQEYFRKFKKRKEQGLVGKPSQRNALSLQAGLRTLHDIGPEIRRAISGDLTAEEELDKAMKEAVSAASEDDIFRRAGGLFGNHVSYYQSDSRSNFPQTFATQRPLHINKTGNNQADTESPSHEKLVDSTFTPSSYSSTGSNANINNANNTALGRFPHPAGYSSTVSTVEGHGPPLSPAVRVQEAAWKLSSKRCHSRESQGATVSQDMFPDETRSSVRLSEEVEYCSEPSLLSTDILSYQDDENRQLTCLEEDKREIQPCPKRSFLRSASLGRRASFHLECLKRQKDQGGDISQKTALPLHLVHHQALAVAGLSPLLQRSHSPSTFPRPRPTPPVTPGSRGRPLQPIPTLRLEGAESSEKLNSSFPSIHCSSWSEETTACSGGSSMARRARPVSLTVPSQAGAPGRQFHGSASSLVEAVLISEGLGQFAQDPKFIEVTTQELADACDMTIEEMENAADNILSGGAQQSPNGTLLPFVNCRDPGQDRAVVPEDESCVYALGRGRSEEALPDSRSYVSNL
Gamma-aminobutyric acid receptor subunit alpha-1, sequence (P62813 whole entry): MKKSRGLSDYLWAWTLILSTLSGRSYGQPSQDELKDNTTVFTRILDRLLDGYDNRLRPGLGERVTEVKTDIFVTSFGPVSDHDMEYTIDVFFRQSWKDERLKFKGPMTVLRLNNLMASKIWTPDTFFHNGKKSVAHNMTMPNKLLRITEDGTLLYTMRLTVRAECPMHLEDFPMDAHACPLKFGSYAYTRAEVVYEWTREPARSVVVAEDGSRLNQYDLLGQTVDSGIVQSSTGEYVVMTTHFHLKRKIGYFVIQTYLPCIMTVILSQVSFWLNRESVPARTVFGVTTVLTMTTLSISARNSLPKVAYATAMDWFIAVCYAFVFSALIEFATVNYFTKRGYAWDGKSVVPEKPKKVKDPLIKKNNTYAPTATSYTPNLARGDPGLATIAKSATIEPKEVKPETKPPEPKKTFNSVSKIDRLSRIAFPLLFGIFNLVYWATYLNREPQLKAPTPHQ
Sodium-dependent noradrenaline transporter, sequence (P23975 whole entry): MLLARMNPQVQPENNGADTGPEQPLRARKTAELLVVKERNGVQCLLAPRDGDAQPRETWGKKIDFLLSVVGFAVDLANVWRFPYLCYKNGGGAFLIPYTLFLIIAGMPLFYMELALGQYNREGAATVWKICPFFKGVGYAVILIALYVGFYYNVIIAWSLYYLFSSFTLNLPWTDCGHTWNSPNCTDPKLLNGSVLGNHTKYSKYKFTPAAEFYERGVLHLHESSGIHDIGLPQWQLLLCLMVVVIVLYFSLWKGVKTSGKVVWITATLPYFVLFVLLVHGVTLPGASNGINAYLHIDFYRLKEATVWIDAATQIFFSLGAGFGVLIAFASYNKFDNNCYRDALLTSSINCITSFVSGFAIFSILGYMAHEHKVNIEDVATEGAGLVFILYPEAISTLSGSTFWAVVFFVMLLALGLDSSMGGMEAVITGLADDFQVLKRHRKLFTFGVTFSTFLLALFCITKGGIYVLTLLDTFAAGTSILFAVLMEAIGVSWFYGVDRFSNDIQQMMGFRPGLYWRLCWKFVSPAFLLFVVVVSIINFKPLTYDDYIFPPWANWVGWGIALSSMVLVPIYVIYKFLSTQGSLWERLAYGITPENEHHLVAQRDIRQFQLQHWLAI
T1 sequence (P21554 whole entry): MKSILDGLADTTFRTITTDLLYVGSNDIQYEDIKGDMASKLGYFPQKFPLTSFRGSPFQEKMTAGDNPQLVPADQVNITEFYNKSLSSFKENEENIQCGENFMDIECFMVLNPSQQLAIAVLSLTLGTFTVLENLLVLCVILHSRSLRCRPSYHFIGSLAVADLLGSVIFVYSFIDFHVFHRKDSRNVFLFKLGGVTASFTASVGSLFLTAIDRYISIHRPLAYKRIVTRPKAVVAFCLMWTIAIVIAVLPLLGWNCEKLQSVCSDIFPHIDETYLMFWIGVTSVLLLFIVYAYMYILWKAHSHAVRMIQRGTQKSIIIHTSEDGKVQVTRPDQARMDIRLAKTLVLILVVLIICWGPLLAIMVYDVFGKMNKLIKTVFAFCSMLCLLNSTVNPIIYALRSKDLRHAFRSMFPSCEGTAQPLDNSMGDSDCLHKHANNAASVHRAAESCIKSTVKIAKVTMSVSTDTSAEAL
Histamine H2 receptor, sequence (P25021 whole entry): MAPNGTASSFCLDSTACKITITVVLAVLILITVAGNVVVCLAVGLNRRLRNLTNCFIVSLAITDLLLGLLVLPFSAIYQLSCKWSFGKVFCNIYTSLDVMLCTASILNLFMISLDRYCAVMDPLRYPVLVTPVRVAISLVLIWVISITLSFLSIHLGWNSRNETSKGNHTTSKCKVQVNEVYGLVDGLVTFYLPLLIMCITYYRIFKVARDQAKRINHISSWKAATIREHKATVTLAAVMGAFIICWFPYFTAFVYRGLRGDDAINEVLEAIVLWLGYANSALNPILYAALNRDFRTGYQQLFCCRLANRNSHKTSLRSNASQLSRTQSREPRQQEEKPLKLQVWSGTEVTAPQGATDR
Adenosine receptor A2a, sequence (P29274 whole entry): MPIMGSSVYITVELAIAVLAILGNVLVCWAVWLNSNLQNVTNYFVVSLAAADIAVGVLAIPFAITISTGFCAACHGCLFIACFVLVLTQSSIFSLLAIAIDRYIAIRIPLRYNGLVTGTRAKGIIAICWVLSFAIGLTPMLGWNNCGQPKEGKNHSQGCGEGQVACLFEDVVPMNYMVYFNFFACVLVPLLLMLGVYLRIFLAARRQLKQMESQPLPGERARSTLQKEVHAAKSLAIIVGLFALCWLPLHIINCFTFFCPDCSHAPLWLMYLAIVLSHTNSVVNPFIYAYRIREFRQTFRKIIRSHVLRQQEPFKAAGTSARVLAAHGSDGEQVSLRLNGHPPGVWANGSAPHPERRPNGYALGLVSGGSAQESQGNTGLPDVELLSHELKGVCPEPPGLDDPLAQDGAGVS
D(1A) dopamine receptor, sequence (P21728 whole entry): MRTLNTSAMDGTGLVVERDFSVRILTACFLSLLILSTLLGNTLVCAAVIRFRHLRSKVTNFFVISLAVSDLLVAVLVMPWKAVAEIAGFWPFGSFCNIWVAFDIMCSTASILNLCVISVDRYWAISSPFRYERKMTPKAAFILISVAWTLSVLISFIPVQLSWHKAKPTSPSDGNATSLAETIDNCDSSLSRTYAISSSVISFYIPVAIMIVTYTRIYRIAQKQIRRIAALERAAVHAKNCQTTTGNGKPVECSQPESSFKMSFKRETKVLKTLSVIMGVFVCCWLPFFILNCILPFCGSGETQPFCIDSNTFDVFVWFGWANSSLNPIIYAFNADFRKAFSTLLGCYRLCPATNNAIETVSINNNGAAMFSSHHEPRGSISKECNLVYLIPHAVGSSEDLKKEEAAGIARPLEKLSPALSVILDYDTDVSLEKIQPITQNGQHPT

Broadly, the AC50 is the concentration giving half of the maximal activity seen. Take `Cc1ccc(-c2nc3ccc(C)cn3c2CC(=O)N(C)C)cc1` [ZOLPIDEM]: the AC50 (at D(1A) dopamine receptor; in test [1]; in test [2]; in test [3]; at Cannabinoid receptor 1 [4]; on Adenosine receptor A2a) was more than 30 µM in each case. The AC50 in [5] is more than 30 µM; in test [6], more than 30 µM; at Histamine H2 receptor, more than 10 µM; in test [7], more than 30 µM; on Cannabinoid receptor 1 [8] it was more than 30 µM; in test [9], more than 30 µM. The compound also had an AC50 on Progesterone receptor of more than 30 µM.

For the compound `O=C(O)Cc1cn(-c2ccccc2)nc1-c1ccc(Cl)cc1` [LONAZOLAC], the concentration at half-maximal activity (AC50) (at D(1A) dopamine receptor; in test [1]; in test [2]; in test [3]; in test [10]; at Cannabinoid receptor 1 [4]) was more than 30 µM in each case. For the same compound, the AC50 (on Adenosine receptor A2a; in test [5]; in test [6]; on Histamine H2 receptor; in [7]; on Cannabinoid receptor 1 [8]) was more than 30 µM each time. For the same compound, the AC50 was 19 µM in test [9] and more than 30 µM on Progesterone receptor.

As for `CCCCN1CCCCC1C(=O)Nc1c(C)cccc1C` (stereo not drawn) [BUPIVACAINE], the half-maximal activity concentration (AC50) (at D(1A) dopamine receptor; in test [1]; in test [2]; in test [10]; on Cannabinoid receptor 1 [4]; on Adenosine receptor A2a) was more than 30 µM in each case. Besides, the AC50 (in test [5]; in test [6]; on Histamine H2 receptor; in test [7]; on Cannabinoid receptor 1 [8]; in [9]) was more than 30 µM throughout. Moreover, the AC50 on Progesterone receptor was more than 30 µM.

Turning to `CCC(C(=O)O)c1ccc(CC(C)C)cc1` (stereo not drawn) [BUTIBUFEN], the concentration at half-maximal activity (AC50) (on D(1A) dopamine receptor; in test [1]; in test [2]; in test [3]; in test [10]; on Cannabinoid receptor 1 [4]) was more than 30 µM each time. In addition, the AC50 (on Adenosine receptor A2a; in test [5]; in test [6]; at Histamine H2 receptor; in [7]; at Cannabinoid receptor 1 [8]) was more than 30 µM in each case. Further, the AC50 at Progesterone receptor was more than 30 µM.

On to `COc1c(C)c2c(c(O)c1C/C=C(\C)CCC(=O)OCCN1CCOCC1)C(=O)OC2` [MYCOPHENOLATE MOFETIL], for which the AC50 (at D(1A) dopamine receptor; in test [1]; in [2]; in [3]; in test [10]; on Cannabinoid receptor 1 [4]) was more than 30 µM each time. The AC50 (at Adenosine receptor A2a; in test [5]; in [6]; at Histamine H2 receptor; in test [7]; on Cannabinoid receptor 1 [8]) was more than 30 µM each time. The AC50 on Progesterone receptor was more than 30 µM.

On to `Cc1c(Cl)cccc1Nc1ccccc1C(=O)O` [TOLFENAMIC ACID], for which the AC50 (at D(1A) dopamine receptor; in test [1]; in [2]; in test [10]; at Cannabinoid receptor 1 [4]; at Adenosine receptor A2a) was more than 30 µM in each case. Further, the AC50 in test [5] is more than 30 µM; in test [6], more than 30 µM; at Histamine H2 receptor, more than 30 µM; in test [7], more than 30 µM; on Cannabinoid receptor 1 [8], more than 30 µM; in [9], 0.6 µM. For the same compound, the activity on Progesterone receptor was half-maximal at 26 µM (AC50).

With `Cc1cccc(C)c1NC(=O)C1CCCCN1C` (stereo not drawn) [MEPIVACAINE], the AC50 (at D(1A) dopamine receptor; in test [1]; in test [3]; in test [10]; at Cannabinoid receptor 1 [4]; on Adenosine receptor A2a) was more than 30 µM throughout. Besides, the AC50 (in test [5]; in test [6]; on Histamine H2 receptor; in [7]; on Cannabinoid receptor 1 [8]; in [9]) was more than 30 µM each time. On Progesterone receptor, this compound came in with an AC50 of more than 30 µM.

With `C[C@H]1C[C@@H]2[C@H]([C@@H](O)C[C@@]3(C)[C@H]2CC[C@]3(O)C(=O)COC(=O)CCC(=O)O)[C@@]2(C)C=CC(=O)C=C12` [METHYLPREDNISOLONE HEMISUCCINATE], the AC50 (at D(1A) dopamine receptor; in test [1]; in test [3]; in test [10]; on Cannabinoid receptor 1 [4]; on Adenosine receptor A2a) was more than 30 µM throughout. For the same compound, the AC50 (in [5]; in test [6]; on Histamine H2 receptor; in test [7]; at Cannabinoid receptor 1 [8]; in test [9]) was more than 30 µM each time. This compound came in with a half-maximal activity concentration (AC50) on Progesterone receptor of more than 30 µM.

As for `COC(=O)[C@H]1[C@@H](OC(=O)c2ccccc2)C[C@@H]2CC[C@H]1N2C` [COCAINE], the AC50 (on D(1A) dopamine receptor; in test [1]; in test [2]; in test [10]; at Cannabinoid receptor 1 [4]; at Adenosine receptor A2a) was more than 30 µM in each case. Further, the AC50 (in test [5]; in test [6]; at Histamine H2 receptor; in [7]; at Cannabinoid receptor 1 [8]; in [9]) was more than 30 µM in each case. At Progesterone receptor, this compound gave an AC50 of more than 30 µM.
